Test results: US20050113456A1, “Method of decreasing fat deposits and body weight in mammals and birds” (priority 2003, published 2005)
Where “and” joins values, the source holds several entries; their conditions need not be identical. Equal values may be shown once. Read-outs that look alike come from different tables or passages of the source.

Experiments:
[1] = tested on: Cobb broilers; assay: Safety study in chicken: mortality; assay type: in vivo; details: Day 14 to Day 28, Cobb broilers
Experimental: (§1) Three dietary treatments were used in this clinical study. […] After mixing, the diets were cold pelleted (65° C.).
Feed and water were available ad libitum. […] Mortality was recorded daily.

[2] = Experimental: Three dietary treatments were used in this clinical study. […] Sixty kilograms of each diet was prepared, and the drugs were mixed into the diets according to the standard operating procedures of the test facility. After mixing, the diets were cold pelleted (65° C.). The diets were analyzed for their concentration of test article immediately after the mixing and at predetermined intervals thereafter.
Day-old male broiler (Cobb) chicken were obtained from a commercial hatchery. The birds were raised in battery brooders housed in an environmentally controlled room and they received a commercial broiler starter diet from day 1 to 12. The birds were transferred to grower cages on day 12. On day 14, birds were weighed individually and birds with relatively high or low body weights were discarded. A total of 72 birds (of uniform body weight) were chosen and distributed into test groups so that average weights per test group were nearly equal. […] The diets were fed from day 14 to 28 and the animals were slaughtered on Day 29. Feed and water were available ad libitum. […] Mortality was recorded daily.

[3] = cited from earlier work; for Reduction of fat pad: Rehfeldt et al. 1997
[4] = Reduction of body fat by the isomers of salbutamol; set-up: species or system mammals and birds; details: in vivo
[5] = tested on: smooth muscle; details: Yamaguchi et al. 1996; cited from earlier work
[6] = Efficacy study in chicken: abdominal fat pad and body weight gain; assay type: in vivo; details: for Abdominal fat pad (% BW): day 21 to 42; for Influence on body weight gain (grams): gain during 21 to 42 days of age; for Reduction of fat pads: females; for Decrease of fat pads: males
Experimental: as §1
The birds were transferred to grower cages on day 15 and a commercial broiler finisher diet (18.9% crude protein) was fed. […] Animals (of uniform body weight) were distributed into groups of 24 birds each. (Additional treatment groups than those shown here were used and dosed differently.) Each of the dietary treatments was then randomly assigned to the treatment groups. The diets were fed from day 21 and the animals were slaughtered on Day 42. Feed and water were available ad libitum throughout the study. Body weights were recorded at weekly intervals.

[7] = target: Beta-3 receptor (Homo sapiens, UniProt P13945); details: results obtained from BRIDGE PHARMA, Inc.; read-out: Affinity for receptor (Ki) Beta-3; cited from earlier work
[8] = Efficacy study in obese young mammals; details: oral, obese young animals, preliminary results
[9] = Efficacy study in obese adult mammals; details: oral, obese adult animals, preliminary results
[10] = female broilers, 10 ppm in feed

Beta-3 receptor, sequence (P13945 whole entry): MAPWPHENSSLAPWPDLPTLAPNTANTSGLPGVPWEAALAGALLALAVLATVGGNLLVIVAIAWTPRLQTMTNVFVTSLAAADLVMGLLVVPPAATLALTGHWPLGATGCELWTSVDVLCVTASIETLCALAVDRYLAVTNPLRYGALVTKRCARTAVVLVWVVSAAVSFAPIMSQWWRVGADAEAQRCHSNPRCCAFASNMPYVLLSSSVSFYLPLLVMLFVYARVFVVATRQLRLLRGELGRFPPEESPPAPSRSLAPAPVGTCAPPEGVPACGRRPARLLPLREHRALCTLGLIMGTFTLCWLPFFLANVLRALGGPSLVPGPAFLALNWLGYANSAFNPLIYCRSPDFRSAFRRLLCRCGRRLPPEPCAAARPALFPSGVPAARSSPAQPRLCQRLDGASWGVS

Molecule: CC(C)(C)NCC(O)c1ccc(O)c(CO)c1 (racemic) [RS-salbutamol]
- Mortality (out of 24 birds) ([1]; 10 ppm in feed): caused fatalities and 2/24
- Tissue drug concentration ([2]; racemate-treated animals): 61.3 ng/g
- Concentration of total salbutamol in liver ([2]; treatment 10 ppm RS-salbutamol in feed, Day 14 to Day 28): 61.3 ng of drug per g of liver

Molecule: CC(C)(C)NCC(O)c1cc(Cl)c(N)c(Cl)c1 (racemic) [clenbuterol, 4-amino-α-[(tert-butylamino)methyl]-3,5-dichlorobenzyl alcohol]
- Effect on body weights of broiler chicken ([3]; Dalrymple et al. 1984): increased
- Effect on abdominal fat weight ([3]; chicken, Hamano et al. 1998): could not find any effect
- Reduction of abdominal fat pad ([3]; female chicken, Dalrymple et al. 1984): 8.5%
- Reduction of fat pad ([3]; female chicken): 8.5%
- Reduction of abdominal fat pad ([3]; male chicken, Dalrymple et al. 1984): did not reduce
- Reduction of fat pad ([3]; male chicken): 6.0%

Molecule: CC(C)(C)NC[C@@H](O)c1ccc(O)c(CO)c1 [S-salbutamol]
- Reduction of fat content in the bodies of mammals and birds [4]: did not reduce fat
- Smooth muscle hyperreactivity [5]: causes smooth muscle hyperreactivity

Molecule: α′[(tert-butylamino) methyl]-4-hydroxy-m-xylene-α,α′-diol [R-salbutamol]
- Mortality (out of 24 birds) ([1]; 5 ppm in feed): no fatalities and 0/24
- Abdominal fat pad (% BW) ([6]; female broilers, 5 ppm in feed): 1.79 % BW
- Influence on body weight gain (grams) ([6]; female broilers, 5 ppm in feed): 1646 grams
- Abdominal fat pad (% BW) [6, 10]: 1.77 % BW
- Influence on body weight gain (grams) [6, 10]: 1614 grams
- Reduction of fat pads ([6]; 5 ppm): 19.4%
- Reduction of fat pads ([6]; 10 ppm): 20.3%
- Abdominal fat pad (% BW) ([6]; male broilers, 5 ppm in feed): 1.64 % BW
- Influence on body weight gain (grams) ([6]; male broilers, 5 ppm in feed): 1886 grams
- Abdominal fat pad (% BW) ([6]; male broilers, 10 ppm in feed): 1.63 % BW
- Influence on body weight gain (grams) ([6]; male broilers, 10 ppm in feed): 1887 grams
- Decrease of fat pads ([6]; 5 ppm): 17.2%
- Decrease of fat pads ([6]; 10 ppm): 17.7%
- Reduction of fat content in the bodies of mammals and birds [4]: potently and stereoselectively reducing the fat content
- Ki [7]: > 10 µM
- Effect on body fat [8]: significantly decreases body fat
- Effect on body fat [9]: significantly decreases body fat
